According to paper PMC10302187, “WssI from the Gram-negative bacterial cellulose synthase is an O-acetyltransferase that acts on cello-oligomers with several acetyl donor substrates” (The Journal of Biological Chemistry, 2023):

Assays:
AiWssI^ΔN [1] = target: T1, AiWssI^ΔN (Achromobacter insuavis, UniProt A0A6J5I893); experiment: HTS MU-Ac fluorescence esterase dose-response assay; type: biochemical; details: MU-Ac as esterase substrate
Procedure: Large-scale HTS was conducted at the SPARC BioCentre Drug Discovery (Hospital for Sick Children, Toronto, Canada) with a subset of the Chembridge DIVERset library collection (as well as 135 manually selected compounds based on success against other SGNH enzymes) in a 384-well format. The assay was performed in singlet during the primary screen of the entire compound list and in triplicate for a follow-up confirmatory screen. Reaction setups for both screens were conducted with 50 mM sodium phosphate buffer (pH 6.5), 3 μM AiWssI^ΔN and 0.5 mM MU-Ac (final concentration of 5% [v/v] dimethyl sulfoxide) using a Thermo MultiDrop Combi Reagent Dispenser. The reaction was initiated by the addition of 20 μM of the test compounds using an Echo 550 acoustic dispenser (Labcyte). Fluorescence was monitored with a SynergyNeo microplate reader (BioTek) using excitation and emission wavelengths of 365 and 450 nm, respectively, for approximately 45 min alongside appropriate negative and positive controls. […] The hits remaining after the primary and confirmatory screening were examined further to identify possible PAINS, which could result in false-positive results ([91]). Further refinement of the lead candidates was also conducted by assessing the fluorescence quenching potential of lead compound hits by assaying the quenching potential of different compound concentrations (10.1 μM and/or 50.5 μM) against the fluorescence of 4-methylumbeliferone (247 μM) to reveal any potential false positives that were not actually because of AiWssI^ΔN activity. All fluorescence readings were normalized using the following equation to determine the percentage of quenching ([92]): NormalizedFlouresence=Fobs−μFmin/μFmax−μFminx100% In the aforementioned formula, Fobs is the sample fluorescence value, μFmin is the mean fluorescence value of the negative controls, and μFmax is the mean fluorescence value of the positive controls.
(§1) All inhibitor compounds for confirmatory assays were purchased from Enamine Ltd, with the exception of compound 1 (Santa Cruz Biotechnology, Inc), Compounds 2 and 7 (Molport via Maybridge Ltd and Vitas M Chemical Ltd, respectively) and compound 6 (Mcule, Inc). The dose–response curves were generated using either CDD Vault Analysis Software (Collaborative Drug Discovery, Inc) or GraphPad Prism, version 8.4.3. Inhibition constants (Ki) were calculated using the Cheng–Prusoff equation for competitive inhibition that is calculated using the KM of the uninhibited enzyme, the substrate concentration (S) at which the IC50 values were calculated, and the IC50 value of the inhibitor ([92]): Ki=IC50/(S/KM+1)

[2] = target: serine/threonine phosphatase calcineurin; design: method as in PMID 9763224; details: p-nitrophenyl phosphate as a substrate; cited from earlier work
AiWssI^ΔN [3] = target: T1, AiWssI^ΔN; experiment: Follow-up standard MU-Ac esterase assay (dose-response); type: biochemical
Procedure: The fluorescence substrate, MU-Ac, was also tested as a substrate of WssI^ΔN for its amenability to the planned high-throughput analyses (see later). Reaction setups were exactly the same as that for pNP-Ac, with the exceptions of the assay buffer (50 mM sodium phosphate, 150 mM NaCl, 1 mM DTT, pH 7), MU-Ac as the acetyl donor (final concentration of 0.5 mM along with 5% [v/v] dimethyl sulfoxide, as this was the solvent for MU-Ac), and the assay was performed in fluorescence compatible microplates (Grenier BioOne) and monitored with excitation and emission wavelengths of 365 and 450 nm, respectively for 60 min.
as §1

AiWssI^ΔN [4] = target: T1, AiWssI^ΔN; type: biochemical; details: 1 h incubation with reagent (1 mM PMSF, 5 mM MSF, 5 mM EDTA, 0.1 mM E-64, 20 μM Pepstatin A); 6 mM pNP-Ac, pH 7
Procedure: (§2) The enzymatic rate of the WssI^ΔN proteins was measured using chromogenic assays in a 50 mM sodium phosphate-buffered (pH 7) solution, with WssI^ΔN (3 μM unless specified otherwise) and were initiated by the addition of pNP-Ac to a final concentration of 6 mM (dissolved in 5% [v/v] ethanol). Assay samples and corresponding controls (i.e., containing no WssI^ΔN and/or substrate) were run in quadruplicate, and the progress of the reaction was monitored at 405 nm (Cytation5) for 30 min in 1 min intervals following a 5 s initial linear shake to mix contents thoroughly. These conditions were deemed standard assay conditions for subsequent trials except where modifications are noted. The activity assay to determine optimal pH and buffer type was performed with 2-(N-morpholino)ethanesulfonic acid over pH ranges of 5.5 to 6.5, sodium phosphate for pH 6.5 to 7.5, and Tris for the final range of 7.5 to 9.25. In addition, standard assay conditions were modified by incorporating various inhibitors and common reducing agents to determine effects on WssI^ΔN activity. […] To test the effects of the absence of DTT, trials were conducted where DTT was removed from all purification and dialysis buffers, unless mentioned otherwise. Data are either reported in specific activity as units of esterase activity (i.e., the amount of enzyme required to release 1 μmol of p-nitrophenol per min^−1 per mg of protein^−1) or as percent residual activity when compared with the WssI^ΔN controls (i.e., containing no inhibitors).

PfWssI^ΔN = target: T2, PfWssI^ΔN (Pseudomonas fluorescens, UniProt Q8RSY4); type: biochemical; details: 1 h incubation with reagent (1 mM PMSF, 5 mM MSF, 5 mM EDTA, 0.1 mM E-64, 20 μM Pepstatin A); 6 mM pNP-Ac, pH 7
T2 sequence (Q8RSY4 92-374): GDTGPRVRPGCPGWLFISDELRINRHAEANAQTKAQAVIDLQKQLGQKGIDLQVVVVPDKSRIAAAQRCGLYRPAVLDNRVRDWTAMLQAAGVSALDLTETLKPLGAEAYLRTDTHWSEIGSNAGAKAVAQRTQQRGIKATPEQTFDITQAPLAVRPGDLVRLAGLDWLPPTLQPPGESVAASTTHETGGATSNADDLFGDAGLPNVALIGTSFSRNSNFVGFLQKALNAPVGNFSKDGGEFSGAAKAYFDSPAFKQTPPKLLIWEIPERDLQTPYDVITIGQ
Procedure: as §2

T1 sequence (A0A6J5I893 entry or part of it, stated change not applied): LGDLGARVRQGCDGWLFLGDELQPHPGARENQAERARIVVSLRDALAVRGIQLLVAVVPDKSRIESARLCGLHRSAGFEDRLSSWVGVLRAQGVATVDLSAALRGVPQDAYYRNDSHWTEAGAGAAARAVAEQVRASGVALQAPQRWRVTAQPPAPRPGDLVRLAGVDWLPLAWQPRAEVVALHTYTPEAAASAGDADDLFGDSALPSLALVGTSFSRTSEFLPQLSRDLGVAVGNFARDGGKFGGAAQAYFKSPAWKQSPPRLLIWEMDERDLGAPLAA

## N#CC(C#N)=C(N)/C(C#N)=C/c1ccc(O)cc1 [Compound 1, (3Z)-2-Amino-3-[(4-hydroxyphenyl)-methylidene]prop-1-ene-1,1,3-tricarbonitrile]
AiWssI^ΔN [1]
  IC50: 10.1 µM
[2]
  IC50: 30 µM
AiWssI^ΔN [3]; MU-Ac (0.5 mM) as esterase substrate, read-out: Second MU-Ac IC50
  IC50: 28.4 µM
AiWssI^ΔN [3]; MU-Ac as esterase substrate, Cheng-Prusoff, competitive inhibition, read-out: Second MU-Ac Ki
  Ki: 15.1 µM

## CC(C)C[C@H](NC(=O)[C@H]1O[C@@H]1C(=O)O)C(=O)NCCCCN=C(N)N [E-64]
AiWssI^ΔN [4]
  Residual activity AiWssI^ΔN: 130.8 ± 9.1%
PfWssI^ΔN
  Residual activity PfWssI^ΔN: 107.8 ± 10.8%

## CS(=O)(=O)F [MSF, methanesulfonyl fluoride]
AiWssI^ΔN [4]
  Residual activity AiWssI^ΔN: 95.0 ± 6.2%
PfWssI^ΔN
  Residual activity PfWssI^ΔN: 112.1 ± 4.4%
